{"source": "patent US11878045B2", "about": "“Inducing cell death by hyperactivation of motility networks” (The Johns Hopkins University, priority 2016, dated 2024)", "key": {"[1]": {"system": "Dictyostelium pten− cells", "conditions": "for cytotoxicity for Dictyostelium pten− cells: 5 μM statin, three day period (17, 41, 65 hours); for time after drug treatment at which cell death started to occur: pten− cells; for growth of pten− cells compared to DMSO control: three day period", "description": "Cells were treated with 5 μM fluvastatin or DMSO. Images were taken 17 hours (left), 41 hours (middle), and 65 hours (right) after drug treatment.\nSeven statins currently available on the market were tested for cytotoxicity on pten− cells. The graph quantifies growth of cells treated with 5 μM of statins or DMSO control over a three day period. Blue, orange, and yellow bars represent relative cell counts 17 hours, 41 hours, and 65 hours after drug treatment.\nStatins are inhibitors of HMG-CoA reductase, the rate-controlling enzyme of the mevalonate pathway."}, "[2]": {"system": "Dictyostelium pten− cells", "assay": "Phenotypic screen of the Johns Hopkins drug library on growth of pten− cells", "type": "cell-based", "conditions": "hits validated independently with purchased compounds", "excerpt": "(§1) FIG. 7 is a diagram showing the process of drug library screen. […] Secondary screen confirmed nine compounds with effects selective for pten− but not wild-type cells.\n(§2) The John Hopkins Drug Library contains 2560 drugs that are either FDA approved, have been proven in other countries for treating human diseases, or have entered phase II clinical trials. […] These compounds fell into several classes: certain phenothiazines (promazine, chlorpromazine, and thioridazine), certain antibiotics (polymyxin and chloroxine), certain statins (fluvastatin and pitavastatin), and others (benfluorex and phenazopyridine). All of the hits were validated independently with purchased compounds and repeating the experiments."}, "wild type cells [3]": {"system": "wild type cells", "assay": "Phenotypic screen of the Johns Hopkins drug library, wild-type counter-screen", "type": "cell-based, Dictyostelium", "conditions": "library screen hits", "excerpt": "as §1, §2"}, "wild type cells [4]": {"system": "wild type cells", "assay": "Statin growth test on wild type cells", "type": "cell-based, Dictyostelium", "description": "Cells were treated with 5 μM fluvastatin or DMSO."}, "MCF-10A cells": {"system": "MCF-10A cells", "assay": "Growth of parental mammary epithelial cells under compound treatment", "type": "cell-based, human", "conditions": "5 μM", "description": "(§3) MCF-10A or pten−/− cells were treated with DMSO control or 5 μM pitavastatin. Upper and lower panels show 44 hours and 68 hours after drug treatment.\n(§4) Cells were treated with DMSO control or 5 μM drugs. Blue, orange, and yellow bars represent 20 hours, 44 hours, and 68 hours after drug treatment.\n(§5) To test whether the hits from the drug screen targeted human pre-metastatic cells, the growth of the human mammary epithelial cell lines MCF-10A, MCF-10A with homozygous pten deletion (pten−/−), or MCF10-A harboring oncogenic PIK3CA mutations under compound treatment were measured."}, "[5]": {"system": "MCF-10A with homozygous pten deletion (pten−/−)", "assay": "Growth of mammary epithelial cells with homozygous pten deletion under compound treatment", "type": "cell-based, human", "conditions": "5 μM", "description": "as §3, §4, §5"}, "pten−/− cells": {"system": "pten−/− cells", "assay": "Add-back experiments (MVA, GGPP, cholesterol) with pitavastatin", "type": "cell-based, human"}, "[6]": {"system": "MCF10-A harboring oncogenic PIK3CA mutations", "assay": "Growth of mammary epithelial cells with oncogenic PIK3CA mutations under compound treatment", "type": "cell-based, human", "conditions": "5 μM", "description": "as §5"}}, "note": "Entries after “also recorded” stand apart in the source; their conditions may differ."}
{"molecule": "CC(C)c1c(C(=O)Nc2ccccc2)c(-c2ccccc2)c(-c2ccc(F)cc2)n1CC[C@@H](O)C[C@@H](O)CC(=O)O", "note": "[atorvastatin]", "values": [{"measurement": "cytotoxicity for Dictyostelium pten− cells", "setting": "[1]", "value": "well tolerated"}]}
{"molecule": "CC(Cc1cccc(C(F)(F)F)c1)NCCOC(=O)c1ccccc1", "note": "(stereo not drawn) [benfluorex]", "values": [{"measurement": "effect on growth or survival of pten− cells in the library screen", "setting": "[2]", "value": "selectively slow down the growth of or kill pten− cells"}, {"measurement": "effect on morphology and growth of wild type cells", "setting": "wild type cells [3]", "value": "little or no effect"}]}
{"molecule": "Oc1c(Cl)cc(Cl)c2cccnc12", "note": "[chloroxine]", "values": [{"measurement": "effect on growth or survival of pten− cells in the library screen", "setting": "[2]", "value": "selectively slow down the growth of or kill pten− cells"}, {"measurement": "effect on morphology and growth of wild type cells", "setting": "wild type cells [3]", "value": "little or no effect"}]}
{"molecule": "CN(C)CCCN1c2ccccc2Sc2ccc(Cl)cc21", "note": "[chlorpromazine]", "values": [{"measurement": "effect on growth or survival of pten− cells in the library screen", "setting": "[2]", "value": "selectively slow down the growth of or kill pten− cells"}, {"measurement": "effect on morphology and growth of wild type cells", "setting": "wild type cells [3]", "value": "little or no effect"}]}
{"molecule": "CC(C)n1c(/C=C/C(O)CC(O)CC(=O)O)c(-c2ccc(F)cc2)c2ccccc21", "note": "(stereo not drawn) [fluvastatin]", "values": [{"measurement": "effect on growth or survival of pten− cells in the library screen", "setting": "[2]", "value": "selectively slow down the growth of or kill pten− cells"}, {"measurement": "effect on morphology and growth of wild type cells", "setting": "wild type cells [3]", "value": "little or no effect"}, {"measurement": "cytotoxicity for Dictyostelium pten− cells", "setting": "[1]", "value": "high cytotoxicity; also recorded: higher efficacy compared to all other statins"}, {"measurement": "growth and survival of Dictyostelium pten− cells (FIG. 8)", "setting": "[1]; 5 μM, images 17, 41 and 65 hours after treatment", "value": "selectively affected the growth and survival"}, {"measurement": "time after drug treatment at which cell death started to occur", "setting": "[1]", "value": "around 40 hours"}, {"measurement": "growth of pten− cells compared to DMSO control", "setting": "[1]", "value": "grew much slower"}, {"measurement": "growth of wild type cells treated with the statins", "setting": "wild type cells [4]", "value": "no significant growth defect"}]}
{"molecule": "CC[C@H](C)C(=O)O[C@H]1C[C@@H](C)C=C2C=C[C@H](C)[C@H](CC[C@@H]3C[C@@H](O)CC(=O)O3)[C@H]21", "note": "[lovastatin]", "values": [{"measurement": "cytotoxicity for Dictyostelium pten− cells", "setting": "[1]", "value": "well tolerated"}]}
{"molecule": "Nc1ccc(/N=N/c2ccccc2)c(N)n1", "note": "[phenazopyridine]", "values": [{"measurement": "effect on growth or survival of pten− cells in the library screen", "setting": "[2]", "value": "selectively slow down the growth of or kill pten− cells"}, {"measurement": "effect on morphology and growth of wild type cells", "setting": "wild type cells [3]", "value": "little or no effect"}]}
{"molecule": "O=C(O)C[C@H](O)C[C@H](O)/C=C/c1c(C2CC2)nc2ccccc2c1-c1ccc(F)cc1", "note": "[pitavastatin]", "values": [{"measurement": "reduction in cell growth and cell death in parental MCF-10A cells", "setting": "MCF-10A cells", "value": "not MCF-10A cells"}, {"measurement": "cell growth of MCF-10A pten−/− cells", "setting": "[5]; 20, 44, 68 hours", "value": "selectively inhibited the growth and survival; also recorded: marked reduction in cell growth"}, {"measurement": "cell death in MCF-10A pten−/− cells", "setting": "[5]; 44 and 68 hours", "value": "cell death induced; also recorded: extensive cell death"}, {"measurement": "effects of pitavastatin with supplementation of cholesterol", "setting": "pten−/− cells", "value": "not cholesterol"}, {"measurement": "effects of pitavastatin with supplementation of GGPP", "setting": "pten−/− cells; increasing doses of pitavastatin, with or without GGPP", "value": "blocked the toxic effects; also recorded: completely blocked"}, {"measurement": "effects of pitavastatin with supplementation of mevalonic acid (MVA)", "setting": "pten−/− cells; increasing doses of pitavastatin, with or without MVA", "value": "blocked the toxic effects; also recorded: completely blocked"}, {"measurement": "effect on growth or survival of pten− cells in the library screen", "setting": "[2]", "value": "selectively slow down the growth of or kill pten− cells"}, {"measurement": "effect on morphology and growth of wild type cells", "setting": "wild type cells [3]", "value": "little or no effect"}, {"measurement": "cytotoxicity for Dictyostelium pten− cells", "setting": "[1]", "value": "high cytotoxicity; also recorded: higher efficacy compared to all other statins"}, {"measurement": "time after drug treatment at which cell death started to occur", "setting": "[1]", "value": "around 40 hours"}, {"measurement": "growth of pten− cells compared to DMSO control", "setting": "[1]", "value": "grew much slower"}, {"measurement": "growth of wild type cells treated with the statins", "setting": "wild type cells [4]", "value": "no significant growth defect"}, {"measurement": "cell death in PIK3CA knock-in cells", "setting": "[6]", "value": "extensive cell death"}, {"measurement": "cell growth of PIK3CA knock-in cells", "setting": "[6]", "value": "marked reduction in cell growth"}]}
{"molecule": "CC[C@H](C)C(=O)O[C@H]1C[C@H](O)C=C2C=C[C@H](C)[C@H](CC[C@@H](O)C[C@@H](O)CC(=O)O)[C@H]21", "note": "[pravastatin]", "values": [{"measurement": "cytotoxicity for Dictyostelium pten− cells", "setting": "[1]", "value": "well tolerated"}]}
{"molecule": "CN(C)CCCN1c2ccccc2Sc2ccccc21", "note": "[promazine]", "values": [{"measurement": "effect on growth or survival of pten− cells in the library screen", "setting": "[2]", "value": "selectively slow down the growth of or kill pten− cells"}, {"measurement": "effect on morphology and growth of wild type cells", "setting": "wild type cells [3]", "value": "little or no effect"}]}
{"molecule": "CC(C)c1nc(N(C)S(C)(=O)=O)nc(-c2ccc(F)cc2)c1/C=C/[C@@H](O)C[C@@H](O)CC(=O)O", "note": "[rosuvastatin]", "values": [{"measurement": "cytotoxicity for Dictyostelium pten− cells", "setting": "[1]", "value": "well tolerated"}]}
{"molecule": "CSc1ccc2c(c1)N(CCC1CCCCN1C)c1ccccc1S2", "note": "(stereo not drawn) [thioridazine]", "values": [{"measurement": "effect on growth or survival of pten− cells in the library screen", "setting": "[2]", "value": "selectively slow down the growth of or kill pten− cells"}, {"measurement": "effect on morphology and growth of wild type cells", "setting": "wild type cells [3]", "value": "little or no effect"}]}
{"molecule": "polymyxin", "values": [{"measurement": "effect on growth or survival of pten− cells in the library screen", "setting": "[2]", "value": "selectively slow down the growth of or kill pten− cells"}, {"measurement": "effect on morphology and growth of wild type cells", "setting": "wild type cells [3]", "value": "little or no effect"}]}
